Measured values published in patent US7772255B2, “Method of treating tumors with azaxanthones” (Supratek Pharma, Inc., priority 2005, dated 2010).
Structures can show the parent of a compound that is named as a salt.

Legend:
[1] = system: S100A4-positive CSML100 cells; assay: Metastasis formation by S100A4-positive CSML100 cells in animal model (Example 6); assay type: in vivo, mouse; conditions: 100 mg/kg i.v. daily for 10 days
Method: In both groups the injection volume was 5 ml/kg. The treatments were started from the day following the tumor cell implantation for 10 consecutive days. The animal body weight was recorded as an index of treatment toxicity during the experiment.
Starting from the day 10 after the cell implantation, one animal of the control group was sacrificed every day to monitor the metastasis development. All animals were sacrificed on day 18 for routine metastasis inspection. […] The metastatic colonies on the organ surface were enumerated immediately following the removal of the organ.
The data were expressed as mean±SEM for the number of metastatic sites.

[2] = system: CSML100 cells; assay: CSML100 (murine mammary carcinoma) experimental metastasis model (Example 24); assay type: in vivo, mouse; conditions: 100 mg/kg/day i.v., 10 daily injections
Method: Amlexanox solution for injections was prepared according to the Example 4. CSML100 cells were inoculated intravenously in 26 female A/J mice (6-7 weeks old). Animals were then divided randomly into two groups: 1) untreated control (n=16, saline) and 2) Amlexanox treated (n=10, 100 mg/kg/day, i.v.; 10 daily injections). The control group received i.v. injections with 5 ml/kg (volume/body weight) of saline, while Amlexanox was administrated intravenously daily with a dose of 100 mg/kg in a volume of 5 ml/kg. Treatment was started on the day following the day of tumor cell implantation and continued for 10 consecutive days. The animal body weight was recorded as an index of treatment toxicity during the experiment. From the day 10 after cell implantation, one animal in the control group was sacrificed every day to monitor the metastasis development. All remaining animals were sacrificed on the day 18 for routine metastasis inspection. Although all organs were routinely screened, metastatic formation was only found in the lungs. The metastatic colonies on the organ surface were enumerated immediately following the removal of the organ.
A maximum body weight loss in treated group was less than 10%. The data are expressed as mean±SEM for the number of metastatic sites on the lung surface.

[3] = system: CSML100 cells; assay: S100A4-positive lung metastasis tumor model, alone or in combinations (Example 25); assay type: in vivo, mouse; conditions: CSML100 i.v. in A/J mice, 10 days, mean±SEM
Method: Amlexanox solution for injections was prepared according to the Example 4. […] The animals were then divided randomly into 9 groups (n=9 except for control group): 1) intact control (n=13, saline); 2) Amlexanox (i.v. 100 mg/kg); 3) Amlexanox ([…]. 3 mg/kg); 5) Amlexanox ([…]. […] 10 mg/kg). […] The treatments were started on the day following the tumor cell implantation and continued for 10 consecutive days. […] The animal body weight was recorded as an index of treatment toxicity during the experiment. […] The data are expressed as mean±SEM for the number of metastatic sites on the lung surface.

[4] = Chemical stability of Amlexanox sodium salt solution (HPLC); assay type: physicochemical; conditions: 20 mg Amlexanox sodium salt in 2 mL Tris buffer pH 7.2; 0.05 molar equivalent of the listed compound; 72 hours, ambient light, access to air; HPLC peak area
Method: 20 mg of crystalline Amlexanox sodium salt was dissolved in a clear glass test tube in 2 mL of Tris buffer, pH 7.2. For each of the stabilizing compounds listed in the Table below, 0.05 molar equivalent of the compound was added to the solution, mixed until dissolved, and left under ambient light, and with access to the air. Concentration of Amlexanox in the sample was determined by HPLC right after preparation, and after 72 hours. The chemical stability of Amlexanox was evaluated by comparison of area under the peak of amlexanox from the two analyses.

[5] = CSML100 cells i.v. in female A/J mice, day 18, mean±SEM

Row | SMILES | Average of lung metastasis number per animal [1, 5] | Trial/control × 100% ([1]; lung metastasis number, day 18) [%] | inhibition on metastases formation ([1]; mice inoculated CSML100 cells) | body weight loss ([1]; non-significant, A/J mice) | Average of lung metastasis number per animal (sample number) [2, 5] | Treated/control × 100% ([2]; lung metastasis number, day 18) [%] | maximum body weight loss ([2]; treated group, A/J mice) | Lung Metastasis Number per Animal ([3]; Amlexanox i.v. 100 mg/kg daily) | Lung Metastasis Number per Animal ([3]; Amlexanox p.o. 200 mg/kg daily) | Retained Amlexnox [4] [%]
1 | CC(C)c1ccc2oc3nc(N)c(C(=O)O)cc3c(=O)c2c1 [Amlexanox, 2-amino-7-isopropyl-1-azaxanthone-3-carboxylic acid] | 18.8 ± 2.3 | 48.5 | significant inhibition on metastases formation | less than 10% | 18.8 ± 2.3 (9) | 48.5 | less than 10% | 29.6 ± 3.89 | 26.2 ± 4.16 | –
2 | CC(C)c1ccc2oc3nc(N)c(C(=O)O)cc3c(=O)c2c1 [Amlexanox (salt), 2-amino-7-isopropyl-1-azaxanthone-3-carboxylic acid sodium salt] | – | – | – | – | – | – | – | – | – | 93.8
